Laboratory results reported in US20060069132A1, “Azolecarboxamide herbicides” (priority 2004, published 2006).

Legend:
giant foxtail [1] = assay: Test A pre-/postemergence herbicide test; format: in vivo, Setaria faberi; conditions: for Plant response rating, Foxtail, Giant: Postemergence; for Foxtail, Giant plant response rating: Preemergence
Outline: (§1)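 Visual injury rating on a 0–100 scale (0 no effect, 100 complete control) versus untreated controls, about ten days after treatment in greenhouse. Pre: directed soil spray onto seeded sandy loam. Post: spray to runoff on plants 2–10 cm tall at one- to two-leaf stage.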

barnyardgrass [2] = assay: Test A pre-/postemergence herbicide test; format: in vivo, Echinochloa crus-galli; conditions: for Plant response rating, Barnyardgrass: Postemergence; for Barnyardgrass plant response rating: Preemergence
Outline: as §1

large crabgrass [3] = assay: Test A pre-/postemergence herbicide test; format: in vivo, Digitaria sanguinalis; conditions: for Plant response rating, Crabgrass, Large: Postemergence; for Crabgrass, Large plant response rating: Preemergence
Outline: as §1

soybean = assay: Test C pre-/postemergence herbicide test; format: in vivo, Glycine max
Outline: (§2)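 Pre- and postemergence application, solvent/surfactant formulation; post at 1- to 4-leaf stage (2–18 cm). Greenhouse 12–14 d. Visual rating vs controls, 0 = no effect, 100 = complete control.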

kochia = assay: Test C pre-/postemergence herbicide test; format: in vivo, Kochia scoparia
Outline: as §2

[4] = system: common (oilseed) sunflower; assay: Test C pre-/postemergence herbicide test; format: in vivo, Helianthus annuus; conditions: for Plant response rating (0 = no effect, 100 = complete control), Sunflower / Plant response rating, Sunflower: preemergence
Outline: as §2

lambsquarters = assay: Test C pre-/postemergence herbicide test; format: in vivo, Chenopodium album
Outline: as §2

bermudagrass = assay: Test C pre-/postemergence herbicide test; format: in vivo, Cynodon dactylon
Outline: as §2

giant foxtail [5] = assay: Test C pre-/postemergence herbicide test; format: in vivo, Setaria faberi
Outline: as §2

large crabgrass [6] = assay: Test C pre-/postemergence herbicide test; format: in vivo, Digitaria sanguinalis
Outline: as §2

rice = assay: Test C flooded paddy test; format: in vivo, Oryza sativa
Outline: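 Plants were grown to the 1- to 4-leaf stage (2–18 cm) and then treated postemergence, or grown to the 2-leaf stage for the flooded paddy test. They were held in a greenhouse for 12 to 14 days and then scored by eye against controls, where 0 is no effect and 100 is complete control.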

ducksalad = assay: Test C flooded paddy test; format: in vivo, Heteranthera limosa
barnyardgrass [7] = assay: Test C flooded paddy test; format: in vivo, Echinochloa crus-galli
Outline: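 After a postemergence application at 1 to 4 leaves (plants 2–18 cm high), or at 2 leaves for barnyardgrass in flooded paddy, plants stayed in the greenhouse for 12 to 14 days. Damage was then judged visually relative to control plants, with 100 indicating complete control.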

[8] = 500 g ai/ha, 0 to 100 scale, 0 no effect, 100 complete control
[9] = 2000 g ai/ha, 0 to 100 scale, 0 no effect, 100 complete control
[10] = 500 g ai/ha, visual rating, 0 to 100 scale (0 no effect, 100 complete control)
[11] = 125 g ai/ha, scale 0 (no effect) to 100 (complete control), visual, 12 to 14 days, preemergence
[12] = 250 g ai/ha, scale 0 to 100 (0 no effect, 100 complete control), visual, 12 to 14 days, preemergence
[13] = Postemergence, 500 g ai/ha, scale 0 to 100
[14] = Postemergence, 250 g ai/ha, scale 0 to 100, 0 no effect, 100 complete control
[15] = Preemergence, 500 g ai/ha, scale 0 to 100, 0 no effect, 100 complete control
[16] = postemergence, 62 g ai/ha, scale 0 to 100
[17] = Postemergence, 125 g ai/ha, scale 0 to 100, 0 no effect, 100 complete control
[18] = 62 g ai/ha, preemergence, scale 0 to 100
[19] = 250 g ai/ha, scale 0-100, preemergence
[20] = 500 g ai/ha, scale 0 to 100 (0 no effect, 100 complete control), visual, 12 to 14 days, preemergence
[21] = 125 g ai/ha, scale 0 to 100 (0 no effect, 100 complete control)
[22] = 250 g ai/ha, scale of 0 to 100, 0 is no effect, 100 is complete control
[23] = 500 g ai/ha, visual rating after 12 to 14 days, scale 0 to 100 (0 no effect, 100 complete control)

C=CCNC(=O)c1cccc(NC(=O)c2cc(C(C)(C)C)nn2CC)c1 [Compound 46]
Plant response rating, Foxtail, Giant (giant foxtail [1]; [8]): 80
Plant response rating, Foxtail, Giant (giant foxtail [1]; [9]): 100
Foxtail, Giant plant response rating (giant foxtail [1]; [10]): 90
Foxtail, Giant plant response rating (giant foxtail [1]; [9]): 100
Plant response rating, Barnyardgrass (barnyardgrass [2]; [8]): 100
Plant response rating, Barnyardgrass (barnyardgrass [2]; [9]): 100
Barnyardgrass plant response rating (barnyardgrass [2]; [10]): 90
Barnyardgrass plant response rating (barnyardgrass [2]; [9]): 100
Plant response rating, Crabgrass, Large (large crabgrass [3]; [8]): 75
Plant response rating, Crabgrass, Large (large crabgrass [3]; [9]): 90
Crabgrass, Large plant response rating (large crabgrass [3]; [10]): 65
Crabgrass, Large plant response rating (large crabgrass [3]; [9]): 90
Plant response rating (0 = no effect, 100 = complete control), Soybean (soybean; 62 g ai/ha, preemergence): 0
Plant response rating, Soybean (soybean; [11]): 0
Plant response rating, Soybean (soybean; [12]): 10
Soybean plant response rating (soybean; [13]): 100
Plant response rating, Soybean (soybean; [14]): 100
Soybean plant response rating (soybean; [15]): 10
Plant response rating, Soybean (soybean; [16]): 100
Plant response rating (0 = no effect, 100 = complete control), Kochia (kochia; 62 g ai/ha, preemergence): 0
Plant response rating, Kochia (kochia; [11]): 90
Plant response rating, Kochia (kochia; [12]): 100
Kochia plant response rating (kochia; [13]): 100
Plant response rating, Kochia (kochia; [14]): 100
Kochia plant response rating (kochia; [15]): 100
Plant response rating, Kochia (kochia; [16]): 90
Plant response rating (0 = no effect, 100 = complete control), Sunflower ([4]; 62 g ai/ha): 0
Plant response rating, Sunflower ([4]; 125 g ai/ha, scale 0 (no effect) to 100 (complete control), visual, 12 to 14 days): 10
Plant response rating, Sunflower ([4]; 250 g ai/ha, scale 0 to 100 (0 no effect, 100 complete control), visual, 12 to 14 days): 10
Sunflower plant response rating [4, 15]: 10
Plant response rating (0 = no effect, 100 = complete control), Lambsquarters (lambsquarters; 62 g ai/ha, preemergence): 100
Plant response rating, Lambsquarters (lambsquarters; [11]): 100
Plant response rating, Lambsquarters (lambsquarters; [12]): 100
Lambsquarters plant response rating (lambsquarters; [13]): 100
Plant response rating, Lambsquarters (lambsquarters; [14]): 100
Lambsquarters plant response rating (lambsquarters; [15]): 100
Plant response rating, Lambsquarters (lambsquarters; [16]): 80
Plant response rating (0 = no effect, 100 = complete control), Bermudagrass (bermudagrass; 62 g ai/ha, preemergence): 90
Plant response rating, Bermudagrass (bermudagrass; [11]): 100
Plant response rating, Bermudagrass (bermudagrass; [12]): 100
Plant response rating, Bermudagrass (bermudagrass; [17]): 100
Bermudagrass plant response rating (bermudagrass; [15]): 100
Plant response rating (0 = no effect, 100 = complete control), Foxtail, Giant (giant foxtail [5]; 62 g ai/ha, preemergence): 10
Plant response rating, Foxtail, Giant (giant foxtail [5]; [11]): 60
Plant response rating, Foxtail, Giant (giant foxtail [5]; [12]): 100
Foxtail, Giant plant response rating (giant foxtail [5]; [13]): 70
Plant response rating, Foxtail, Giant (giant foxtail [5]; [17]): 60
Plant response rating, Foxtail, Giant (giant foxtail [5]; [14]): 60
Foxtail, Giant plant response rating (giant foxtail [5]; [15]): 100
Plant response rating, Foxtail, Giant (giant foxtail [5]; [16]): 40
Plant response rating (0 = no effect, 100 = complete control), Crabgrass, Large (large crabgrass [6]; 62 g ai/ha, preemergence): 100
Plant response rating, Crabgrass, Large (large crabgrass [6]; [11]): 100
Plant response rating, Crabgrass, Large (large crabgrass [6]; [12]): 100
Crabgrass, Large plant response rating (large crabgrass [6]; [13]): 90
Plant response rating, Crabgrass, Large (large crabgrass [6]; [17]): 90
Plant response rating, Crabgrass, Large (large crabgrass [6]; [14]): 90
Crabgrass, Large plant response rating (large crabgrass [6]; [15]): 100

CCc1nn(C(C)(C)C)nc1C(=S)Nc1cccc(C(=S)N(C)C)c1 [Compound 396]
Plant response rating, Soybean (soybean; [18]): 0
Plant response rating (0 = no effect, 100 = complete control), Soybean (soybean; 125 g ai/ha, preemergence): 75
Plant response rating, Soybean (soybean; [19]): 100
Plant response rating, Soybean (soybean; [20]): 100
Plant response rating, Kochia (kochia; [18]): 0
Plant response rating (0 = no effect, 100 = complete control), Kochia (kochia; 125 g ai/ha, preemergence): 45
Plant response rating, Kochia (kochia; [19]): 100
Plant response rating, Kochia (kochia; [20]): 100
Plant response rating, Sunflower ([4]; 62 g ai/ha, scale 0 to 100): 0
Plant response rating (0 = no effect, 100 = complete control), Sunflower ([4]; 125 g ai/ha): 0
Plant response rating, Sunflower ([4]; 250 g ai/ha, scale 0-100): 0
Plant response rating, Sunflower ([4]; 500 g ai/ha, scale 0 to 100 (0 no effect, 100 complete control), visual, 12 to 14 days): 15
Plant response rating, Lambsquarters (lambsquarters; [18]): 100
Plant response rating (0 = no effect, 100 = complete control), Lambsquarters (lambsquarters; 125 g ai/ha, preemergence): 100
Plant response rating, Lambsquarters (lambsquarters; [19]): 100
Plant response rating, Lambsquarters (lambsquarters; [20]): 100
Plant response rating, Bermudagrass (bermudagrass; 62 g ai/ha, preemergence, scale 0 to 100, 0 no effect, 100 complete control): 95
Plant response rating (0 = no effect, 100 = complete control), Bermudagrass (bermudagrass; 125 g ai/ha, preemergence): 100
Plant response rating, Bermudagrass (bermudagrass; [19]): 100
Plant response rating, Bermudagrass (bermudagrass; [20]): 100
Plant response rating, Foxtail, Giant (giant foxtail [5]; [18]): 95
Plant response rating (0 = no effect, 100 = complete control), Foxtail, Giant (giant foxtail [5]; 125 g ai/ha, preemergence): 100
Plant response rating, Foxtail, Giant (giant foxtail [5]; [19]): 100
Plant response rating, Foxtail, Giant (giant foxtail [5]; [20]): 100
Rice plant response rating (rice; 62 g ai/ha, scale 0 to 100): 60
Rice plant response rating (rice; [21]): 70
Rice plant response rating (rice; [22]): 75
Plant response rating, Rice (rice; [23]): 80
Plant response rating, Crabgrass, Large (large crabgrass [6]; [18]): 100
Plant response rating (0 = no effect, 100 = complete control), Crabgrass, Large (large crabgrass [6]; 125 g ai/ha, preemergence): 100
Plant response rating, Crabgrass, Large (large crabgrass [6]; [19]): 100
Plant response rating, Crabgrass, Large (large crabgrass [6]; [20]): 100
Ducksalad plant response rating (ducksalad; 62 g ai/ha, scale 0 to 100): 0
Ducksalad plant response rating (ducksalad; [21]): 0
Ducksalad plant response rating (ducksalad; [22]): 65
Plant response rating, Ducksalad (ducksalad; [23]): 75
Barnyardgrass plant response rating (barnyardgrass [7]; 62 g ai/ha, scale 0 to 100 (0 no effect, 100 complete control)): 65
Barnyardgrass plant response rating (barnyardgrass [7]; [21]): 75
Barnyardgrass plant response rating (barnyardgrass [7]; [22]): 75
Plant response rating, Barnyardgrass (barnyardgrass [7]; [23]): 80
